Reference: PubChem BioAssay AID248 (DTP/NCI, 2004)
Several values for one entry are separate records, joined by “and”; a condition that tells them apart may be missing. Equal values may be shown once. Toxic doses and inconclusive results are not listed. No stated cut-off is given here; in the data, active means T/C of 150% or more; inactive means T/C below 125%.

Tested on: L1210 leukemia ip in BDF1 mice, survival T/C
Assay: NCI In Vivo Anticancer Drug Screen. Data for tumor model L1210 Leukemia (intraperitoneal) in B6D2F1 (BDF1) mice
Conditions: endpoint: mean survival time, higher = longer survival
Procedure, shortened: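 Mice bearing the transplanted tumor received compound or vehicle. Survival of the treated group was divided by that of the vehicle-treated control group to give the ratio.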

[1] = dose: 50.0 mg/kg/injection, schedule: Q01DX009 (ip), vehicle: Klucel (hydroxypropylcellulose) (HPC)
[2] = dose: 100.0 mg/kg/injection, schedule: Q01DX001 (ip), vehicle: Klucel (hydroxypropylcellulose) (HPC)
[3] = dose: 100.0 mg/kg/injection, schedule: Q01DX009 (ip), vehicle: Klucel (hydroxypropylcellulose) (HPC)
[4] = dose: 200.0 mg/kg/injection, schedule: Q01DX001 (ip), vehicle: Klucel (hydroxypropylcellulose) (HPC)
[5] = dose: 100.0 mg/kg/injection, schedule: Q04DX003 (ip), vehicle: Klucel (hydroxypropylcellulose) (HPC)
[6] = dose: 200.0 mg/kg/injection, schedule: Q01DX009 (ip), vehicle: Klucel (hydroxypropylcellulose) (HPC)
[7] = dose: 200.0 mg/kg/injection, schedule: Q04DX003 (ip), vehicle: Klucel (hydroxypropylcellulose) (HPC)
[8] = dose: 400.0 mg/kg/injection, schedule: Q01DX009 (ip), vehicle: Klucel (hydroxypropylcellulose) (HPC)
[9] = dose: 400.0 mg/kg/injection, schedule: Q04DX003 (ip), vehicle: Klucel (hydroxypropylcellulose) (HPC)
[10] = dose: 100.0 mg/kg/injection, schedule: Q01DX009 (ip), vehicle: saline with Tween-80
[11] = dose: 200.0 mg/kg/injection, schedule: Q01DX009 (ip), vehicle: saline with Tween-80
[12] = dose: 400.0 mg/kg/injection, schedule: Q01DX009 (ip), vehicle: saline with Tween-80

Measured: T/C

O=NC1C(Cl)C2CC1C1C(Br)C(Br)CC21 (configuration not stated)
inactive: dose: 12.5 mg/kg/injection, schedule: Q04DX003 (ip), vehicle: Klucel (hydroxypropylcellulose) (HPC) 100 % of control | dose: 25.0 mg/kg/injection, schedule: Q01DX009 (ip), vehicle: Klucel (hydroxypropylcellulose) (HPC) 93 % of control | dose: 25.0 mg/kg/injection, schedule: Q04DX003 (ip), vehicle: Klucel (hydroxypropylcellulose) (HPC) 102 % of control | dose: 50.0 mg/kg/injection, schedule: Q01DX001 (ip), vehicle: Klucel (hydroxypropylcellulose) (HPC) 95 % of control | [1] 93 % of control | dose: 50.0 mg/kg/injection, schedule: Q04DX003 (ip), vehicle: Klucel (hydroxypropylcellulose) (HPC) 100 % of control | [2] 92 % of control | [3] 88 % of control | dose: 150.0 mg/kg/injection, schedule: Q01DX009 (ip), vehicle: saline 90 % of control | [4] 89 % of control | dose: 335.0 mg/kg/injection, schedule: Q01DX009 (ip), vehicle: saline 94 % of control

BrP(Nc1cccc(NP(Br)(c2ccccc2)(c2ccccc2)c2ccccc2)c1)(c1ccccc1)(c1ccccc1)c1ccccc1
inactive: dose: 10.0 mg/kg/injection, schedule: Q01DX001 (ip), vehicle: saline 99 % of control | dose: 20.0 mg/kg/injection, schedule: Q01DX001 (ip), vehicle: saline 99 % of control

CNc1ccc(S(=O)(=O)O)cc1
inactive: [3] 98 % of control | [5] 104 % of control | [6] 103 % of control | [7] 102 % of control | [8] 101 % of control | [9] 98 % of control

O/N=C(/C=C(/C(=C/C(=N/O)c1ccccc1)c1ccccc1)c1ccccc1)c1ccccc1
inactive: [1] 102 % of control | [3] 94 % of control | [6] 87 % of control

COc1cc(C2N(c3ccccc3)CCN2c2ccccc2)cc(OC)c1OC
inactive: [3] 97 % of control | [5] 90 % of control | [7] 93 % of control | [8] 94 % of control | [9] 95 % of control

NC(C(=O)O)C(O)c1ccc2c(c1)OCO2 (configuration not stated)
inactive: [10] 103 % of control | [11] 103 % of control | [12] 113 % of control

CC1(C)N=C(N)N=C(N)N1c1ccc(CCc2ccc(Cl)cc2S(=O)(=O)F)c(Cl)c1
inactive: dose: 100.0 mg/kg/injection, schedule: Q01DX001 (ip), vehicle: saline with Tween-80 91 % of control | dose: 200.0 mg/kg/injection, schedule: Q01DX001 (ip), vehicle: saline with Tween-80 94 % of control | dose: 400.0 mg/kg/injection, schedule: Q01DX001 (ip), vehicle: saline with Tween-80 97 % of control

NC(=O)C1=CN(Cc2ccc(F)cc2)c2ccccc2C1
inactive: dose: 100.0 mg/kg/injection, schedule: Q04DX003 (ip), vehicle: other 107 % of control | dose: 200.0 mg/kg/injection, schedule: Q04DX003 (ip), vehicle: other 94 % of control | dose: 400.0 mg/kg/injection, schedule: Q04DX003 (ip), vehicle: other 102 % of control

CCN(C(=O)c1ccc([N+](=O)[O-])cc1)C(c1ccccc1)P(=O)(c1ccccc1)c1ccccc1 (configuration not stated)
inactive: dose: 100.0 mg/kg/injection, schedule: Q04DX002 (ip), vehicle: saline with Tween-80 89 % of control | [11] 95 % of control | dose: 400.0 mg/kg/injection, schedule: Q04DX002 (ip), vehicle: saline with Tween-80 88 % of control

CC(C)C1CCC2=C(CCC3C(C)(C(=O)O)CCCC23C)C1 (configuration not stated)
inactive: [10] 89 % of control | [11] 91 % of control | [12] 89 % of control

O=C(O)c1ccccc1C(=O)OC1CC2C=CC1C21CC1 (configuration not stated)
inactive: [1] 98 % of control | [3] 96 % of control and 95 % of control | [5] 95 % of control | [6] 100 % of control and 113 % of control | [7] 104 % of control and 106 % of control | [9] 101 % of control

CCC1(CC2CCCN(C)C2)c2ccccc2Sc2ccccc21 (configuration not stated)
inactive: dose: 8.0 mg/kg/injection, schedule: Q01DX015 (ip), vehicle: carboxymethylcellulose (CMC) 105 % of control | dose: 16.0 mg/kg/injection, schedule: Q01DX015 (ip), vehicle: carboxymethylcellulose (CMC) 94 % of control | dose: 32.0 mg/kg/injection, schedule: Q01DX015 (ip), vehicle: carboxymethylcellulose (CMC) 91 % of control | dose: 64.0 mg/kg/injection, schedule: Q01DX015 (ip), vehicle: carboxymethylcellulose (CMC) 103 % of control and 110 % of control

O=[N+]([O-])c1ccccc1N=Nc1c(O)[nH]c2ccc(Br)cc12
inactive: dose: 100.0 mg/kg/injection, schedule: Q01DX001 (ip), vehicle: saline 98 % of control | dose: 200.0 mg/kg/injection, schedule: Q01DX001 (ip), vehicle: saline 101 % of control | dose: 400.0 mg/kg/injection, schedule: Q01DX001 (ip), vehicle: saline 113 % of control

CCc1c(C=O)[nH]c(=S)n(C)c1=O
inactive: [2] 104 % of control | [3] 108 % of control | [4] 98 % of control | [6] 88 % of control | dose: 400.0 mg/kg/injection, schedule: Q01DX001 (ip), vehicle: Klucel (hydroxypropylcellulose) (HPC) 101 % of control | [8] 98 % of control

Cc1ccc(C(=NN=C(N)N)c2ccc(C)cc2)cc1
inactive: dose: 3.75 mg/kg/injection, schedule: Q01DX Z (ip), vehicle: saline 101 % of control | dose: 7.5 mg/kg/injection, schedule: Q01DX Z (ip), vehicle: saline 95 % of control | dose: 7.5 mg/kg/injection, schedule: Q01DX Z (oral), vehicle: saline 98 % of control | dose: 15.0 mg/kg/injection, schedule: Q01DX Z (ip), vehicle: saline 93 % of control and 94 % of control | dose: 15.0 mg/kg/injection, schedule: Q01DX Z (oral), vehicle: saline 96 % of control | dose: 30.0 mg/kg/injection, schedule: Q01DX Z (ip), vehicle: saline 104 % of control | dose: 30.0 mg/kg/injection, schedule: Q01DX Z (oral), vehicle: saline 101 % of control | dose: 60.0 mg/kg/injection, schedule: Q01DX Z (oral), vehicle: saline 101 % of control

Cc1ccc(S(=O)(=O)Nc2ccccc2N=Cc2ccc(N(CCCl)CCCl)cc2)cc1
inactive: dose: 100.0 mg/kg/injection, schedule: Q01DX001 (ip), vehicle: carboxymethylcellulose (CMC) 115 % of control | dose: 200.0 mg/kg/injection, schedule: Q01DX001 (ip), vehicle: carboxymethylcellulose (CMC) 106 % of control | dose: 400.0 mg/kg/injection, schedule: Q01DX001 (ip), vehicle: carboxymethylcellulose (CMC) 90 % of control

CC(C)[C@]12O[C@H]1[C@@H]1O[C@@]13[C@@]1(C)CCC4=C(COC4=O)[C@@H]1C[C@@H]1O[C@@]13C2=O
inactive: dose: 79.0 micrograms/kg/injection, schedule: Q01DX009 (ip), vehicle: saline 92 % of control | dose: 118.0 micrograms/kg/injection, schedule: Q01DX009 (ip), vehicle: saline 105 % of control | dose: 178.0 micrograms/kg/injection, schedule: Q01DX009 (ip), vehicle: saline 99 % of control | dose: 267.0 micrograms/kg/injection, schedule: Q01DX009 (ip), vehicle: saline 101 % of control | dose: 400.0 micrograms/kg/injection, schedule: Q01DX009 (ip), vehicle: saline 108 % of control
